The source of these data is paper PMC7180948, “New Insights into 4-Anilinoquinazolines as Inhibitors of Cardiac Troponin I–Interacting Kinase (TNNi3K)” (Molecules, 2020).

Common to all, as to experiment: biochemical
Design in all cases: KINOMEscan competition binding panel (Eurofins DiscoverX), single concentration, % inhibition

One assay addresses ACVR1 (Homo sapiens, UniProt Q04771). The settings on record: read-out: 7 at 1 µM % inhibition. Summed up:
(§1)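 A single 1 µM concentration of each compound is screened across upwards of 400 human kinases using the KINOMEscan format.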

In another assay the target is CAMK1D (Homo sapiens, UniProt Q8IU85). The settings on record: read-out: 7 at 1 µM % inhibition. Summed up:
as §1

The next assay deals with CAMKK1 (Homo sapiens, UniProt Q8N5S9). The conditions noted are these: read-out: 7 at 1 µM % inhibition. A digest of the protocol: as §1
The target in the next assay is CAMKK2 (Homo sapiens, UniProt Q96RR4). The conditions noted are these: read-out: 7 at 1 µM % inhibition. A digest of the protocol:
as §1

A further assay addresses T1, CDK4-cyclinD3 (Homo sapiens, UniProt P11802).
T1 construct: cyclinD3
The settings on record: read-out: 7 at 1 µM % inhibition. Summed up: as §1

For a further assay, the target named is CDK8 (Homo sapiens, UniProt P49336). The conditions noted are these: read-out: 7 at 1 µM % inhibition. A digest of the protocol: as §1
Another assay concerns the target CSNK1G1 (Homo sapiens, UniProt Q9HCP0). The settings on record: read-out: 7 at 1 µM % inhibition. A digest of the protocol:
as §1

For the next assay, the target named is T2, ERK1 (Homo sapiens, UniProt P27361).
T2 construct: gene MAPK3
The conditions noted are these: read-out: 7 at 1 µM % inhibition. Summed up:
as §1

Another assay addresses T3, ERK2 (Homo sapiens, UniProt P28482).
T3 construct: gene MAPK1
The settings on record: read-out: 7 at 1 µM % inhibition. A digest of the protocol: as §1

The target of a further assay is FGR (Homo sapiens, UniProt P09769). The conditions noted are these: read-out: 7 at 1 µM % inhibition. A digest of the protocol: as §1
Another assay addresses HCK (Homo sapiens, UniProt P08631). The settings on record: read-out: 7 at 1 µM % inhibition. Summed up: as §1
Another assay addresses LATS2 (Homo sapiens, UniProt Q9NRM7). The settings on record: read-out: 7 at 1 µM % inhibition. Summed up: as §1
In the next assay the target is LCK (Homo sapiens, UniProt P06239). The settings on record: read-out: 7 at 1 µM % inhibition. A digest of the protocol: as §1
The target of another assay is MAP3K1 (Homo sapiens, UniProt Q13233). The conditions noted are these: read-out: 7 at 1 µM % inhibition. Summed up:
as §1

Another assay has as its target MAP3K3 (Homo sapiens, UniProt Q99759). The conditions noted are these: read-out: 7 at 1 µM % inhibition. A digest of the protocol:
as §1

The target of another assay is NEK11 (Homo sapiens, UniProt Q8NG66). The conditions noted are these: read-out: 7 at 1 µM % inhibition. A digest of the protocol: as §1
The target in the next assay is PAK2 (Homo sapiens, UniProt Q13177). The conditions noted are these: read-out: 7 at 1 µM % inhibition. A digest of the protocol: as §1
A further assay has as its target T4, PFTAIRE2 (Homo sapiens, UniProt Q96Q40).
T4 construct: gene CDK15
The settings on record: read-out: 7 at 1 µM % inhibition. A digest of the protocol: as §1

The next assay concerns the target PIK3CA(E545K) (Homo sapiens, UniProt P42336, E545K). The conditions noted are these: read-out: 7 at 1 µM % inhibition. Summed up:
as §1

The target of the next assay is PIM1 (Homo sapiens, UniProt P11309). The conditions noted are these: read-out: 7 at 1 µM % inhibition. Summed up:
as §1

Another assay concerns the target PKNB(M.tuberculosis) (Mycobacterium tuberculosis, UniProt P9WI81). The settings on record: read-out: 7 at 1 µM % inhibition (pathogen kinases). A digest of the protocol:
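KINOMEscan binding panel of >400 kinases, run by Eurofins DiscoverX, with compounds tested at a single concentration of 1 µM.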

The target of a further assay is TNNI3K (Homo sapiens, UniProt Q59H18). The conditions noted are these: read-out: 7 at 1 µM % inhibition. A digest of the protocol: as §1
Assay [1] has as its target T5, TYK2(JH1domain-catalytic) (Homo sapiens, UniProt P29597).
T5 construct: JH1domain-catalytic
The settings on record: read-out: 7 at 1 µM % inhibition. Summed up: as §1

The next assay deals with T6, p38-alpha (Homo sapiens, UniProt Q16539).
T6 construct: gene MAPK14
The settings on record: read-out: 7 at 1 µM % inhibition. Summed up: as §1

Chain of LCK (P06239 whole entry): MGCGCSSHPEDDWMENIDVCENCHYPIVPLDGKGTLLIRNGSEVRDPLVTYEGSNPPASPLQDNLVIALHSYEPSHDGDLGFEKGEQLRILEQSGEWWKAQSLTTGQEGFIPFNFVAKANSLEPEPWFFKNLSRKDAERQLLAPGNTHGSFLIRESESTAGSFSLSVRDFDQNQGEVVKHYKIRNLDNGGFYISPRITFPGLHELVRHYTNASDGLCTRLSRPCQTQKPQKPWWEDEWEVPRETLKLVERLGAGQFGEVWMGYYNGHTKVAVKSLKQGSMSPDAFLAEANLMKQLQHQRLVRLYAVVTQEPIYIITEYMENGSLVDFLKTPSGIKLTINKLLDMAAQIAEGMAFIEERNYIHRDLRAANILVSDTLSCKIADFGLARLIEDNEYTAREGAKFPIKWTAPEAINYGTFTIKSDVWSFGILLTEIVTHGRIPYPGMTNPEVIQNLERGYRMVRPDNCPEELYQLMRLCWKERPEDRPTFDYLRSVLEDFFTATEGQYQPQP
Chain of PIM1 (P11309 whole entry): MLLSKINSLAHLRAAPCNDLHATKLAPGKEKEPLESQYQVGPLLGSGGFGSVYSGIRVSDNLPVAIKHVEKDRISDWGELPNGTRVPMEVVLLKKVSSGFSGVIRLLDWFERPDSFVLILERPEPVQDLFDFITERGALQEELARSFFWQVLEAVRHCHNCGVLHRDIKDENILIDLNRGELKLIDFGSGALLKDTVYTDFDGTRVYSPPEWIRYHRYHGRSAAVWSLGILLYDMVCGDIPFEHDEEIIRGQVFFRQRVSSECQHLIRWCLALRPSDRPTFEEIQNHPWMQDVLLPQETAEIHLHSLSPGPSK
Chain of MAP3K3 (Q99759 whole entry): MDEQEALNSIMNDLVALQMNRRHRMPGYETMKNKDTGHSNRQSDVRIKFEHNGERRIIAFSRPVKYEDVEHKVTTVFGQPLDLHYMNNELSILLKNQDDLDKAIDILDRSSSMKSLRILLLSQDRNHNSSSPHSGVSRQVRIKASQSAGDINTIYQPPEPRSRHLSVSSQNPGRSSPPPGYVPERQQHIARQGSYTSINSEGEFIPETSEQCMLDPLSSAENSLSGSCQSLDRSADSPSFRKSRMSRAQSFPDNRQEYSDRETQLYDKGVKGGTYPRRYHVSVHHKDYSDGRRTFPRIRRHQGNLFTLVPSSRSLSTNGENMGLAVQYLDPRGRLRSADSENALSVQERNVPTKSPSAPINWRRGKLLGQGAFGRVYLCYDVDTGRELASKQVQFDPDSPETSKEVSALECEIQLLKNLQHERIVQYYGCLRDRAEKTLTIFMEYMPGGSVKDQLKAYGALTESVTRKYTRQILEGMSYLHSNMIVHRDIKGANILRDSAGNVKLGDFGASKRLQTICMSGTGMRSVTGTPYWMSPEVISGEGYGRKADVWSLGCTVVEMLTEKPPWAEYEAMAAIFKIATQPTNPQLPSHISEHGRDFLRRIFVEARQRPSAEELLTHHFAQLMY
Chain of PIK3CA(E545K) (P42336 whole entry E545K): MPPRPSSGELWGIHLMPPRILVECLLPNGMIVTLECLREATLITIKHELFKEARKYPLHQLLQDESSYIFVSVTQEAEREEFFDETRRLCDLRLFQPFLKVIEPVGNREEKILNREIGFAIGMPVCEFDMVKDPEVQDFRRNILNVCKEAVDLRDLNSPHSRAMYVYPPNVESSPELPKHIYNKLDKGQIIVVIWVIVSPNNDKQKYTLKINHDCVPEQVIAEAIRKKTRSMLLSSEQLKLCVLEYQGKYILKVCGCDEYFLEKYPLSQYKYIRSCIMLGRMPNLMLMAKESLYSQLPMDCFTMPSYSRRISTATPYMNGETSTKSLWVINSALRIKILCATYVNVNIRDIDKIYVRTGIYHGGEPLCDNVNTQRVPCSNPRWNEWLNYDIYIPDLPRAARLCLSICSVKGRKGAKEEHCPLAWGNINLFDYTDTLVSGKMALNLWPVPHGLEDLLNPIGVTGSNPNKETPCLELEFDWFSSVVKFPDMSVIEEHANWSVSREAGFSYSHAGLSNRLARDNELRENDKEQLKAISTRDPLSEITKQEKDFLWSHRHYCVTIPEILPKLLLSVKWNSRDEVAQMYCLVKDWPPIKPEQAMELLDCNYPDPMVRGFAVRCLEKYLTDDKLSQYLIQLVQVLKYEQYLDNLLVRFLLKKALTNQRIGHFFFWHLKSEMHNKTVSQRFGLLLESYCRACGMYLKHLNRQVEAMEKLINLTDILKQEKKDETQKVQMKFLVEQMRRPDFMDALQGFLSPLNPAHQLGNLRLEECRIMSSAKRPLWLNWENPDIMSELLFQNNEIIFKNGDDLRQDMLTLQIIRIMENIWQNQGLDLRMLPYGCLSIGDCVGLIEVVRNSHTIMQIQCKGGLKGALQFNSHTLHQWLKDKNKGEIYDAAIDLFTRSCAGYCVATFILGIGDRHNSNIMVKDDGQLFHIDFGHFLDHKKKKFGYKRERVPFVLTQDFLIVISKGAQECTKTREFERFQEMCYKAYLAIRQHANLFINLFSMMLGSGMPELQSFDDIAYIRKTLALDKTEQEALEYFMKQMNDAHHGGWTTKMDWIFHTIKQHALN
T1 sequence (P11802 whole entry): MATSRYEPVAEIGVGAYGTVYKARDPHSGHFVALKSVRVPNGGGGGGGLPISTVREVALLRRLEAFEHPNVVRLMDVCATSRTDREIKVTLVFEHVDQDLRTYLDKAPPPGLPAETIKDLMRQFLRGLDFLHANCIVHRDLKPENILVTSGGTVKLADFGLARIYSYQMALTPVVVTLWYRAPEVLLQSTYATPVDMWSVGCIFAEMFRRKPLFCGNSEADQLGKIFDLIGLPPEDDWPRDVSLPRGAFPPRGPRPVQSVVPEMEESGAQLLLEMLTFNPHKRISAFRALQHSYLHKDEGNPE
T1 sequence (P30281 whole entry partner): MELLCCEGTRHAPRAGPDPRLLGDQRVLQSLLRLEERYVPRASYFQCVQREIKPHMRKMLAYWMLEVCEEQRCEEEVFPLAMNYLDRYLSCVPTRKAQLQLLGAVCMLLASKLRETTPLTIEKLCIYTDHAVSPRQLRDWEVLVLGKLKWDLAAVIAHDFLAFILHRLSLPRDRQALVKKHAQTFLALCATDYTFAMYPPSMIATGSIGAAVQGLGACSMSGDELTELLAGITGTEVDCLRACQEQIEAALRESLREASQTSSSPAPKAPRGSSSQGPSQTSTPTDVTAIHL
Chain of ACVR1 (Q04771 whole entry): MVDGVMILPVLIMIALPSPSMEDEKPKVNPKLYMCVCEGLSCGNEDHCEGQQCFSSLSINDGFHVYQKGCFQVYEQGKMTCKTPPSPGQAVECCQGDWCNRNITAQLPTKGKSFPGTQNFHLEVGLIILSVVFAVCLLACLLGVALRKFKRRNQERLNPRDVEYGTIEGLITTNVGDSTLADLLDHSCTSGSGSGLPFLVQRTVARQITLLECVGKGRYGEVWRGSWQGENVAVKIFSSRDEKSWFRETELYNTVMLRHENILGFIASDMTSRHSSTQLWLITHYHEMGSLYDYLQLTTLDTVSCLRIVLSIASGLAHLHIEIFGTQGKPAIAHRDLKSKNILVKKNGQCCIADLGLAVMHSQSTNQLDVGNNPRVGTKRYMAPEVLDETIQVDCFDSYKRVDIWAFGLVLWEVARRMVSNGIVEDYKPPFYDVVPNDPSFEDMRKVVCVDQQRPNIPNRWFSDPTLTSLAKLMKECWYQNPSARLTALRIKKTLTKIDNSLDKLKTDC
T5 sequence (P29597 whole entry): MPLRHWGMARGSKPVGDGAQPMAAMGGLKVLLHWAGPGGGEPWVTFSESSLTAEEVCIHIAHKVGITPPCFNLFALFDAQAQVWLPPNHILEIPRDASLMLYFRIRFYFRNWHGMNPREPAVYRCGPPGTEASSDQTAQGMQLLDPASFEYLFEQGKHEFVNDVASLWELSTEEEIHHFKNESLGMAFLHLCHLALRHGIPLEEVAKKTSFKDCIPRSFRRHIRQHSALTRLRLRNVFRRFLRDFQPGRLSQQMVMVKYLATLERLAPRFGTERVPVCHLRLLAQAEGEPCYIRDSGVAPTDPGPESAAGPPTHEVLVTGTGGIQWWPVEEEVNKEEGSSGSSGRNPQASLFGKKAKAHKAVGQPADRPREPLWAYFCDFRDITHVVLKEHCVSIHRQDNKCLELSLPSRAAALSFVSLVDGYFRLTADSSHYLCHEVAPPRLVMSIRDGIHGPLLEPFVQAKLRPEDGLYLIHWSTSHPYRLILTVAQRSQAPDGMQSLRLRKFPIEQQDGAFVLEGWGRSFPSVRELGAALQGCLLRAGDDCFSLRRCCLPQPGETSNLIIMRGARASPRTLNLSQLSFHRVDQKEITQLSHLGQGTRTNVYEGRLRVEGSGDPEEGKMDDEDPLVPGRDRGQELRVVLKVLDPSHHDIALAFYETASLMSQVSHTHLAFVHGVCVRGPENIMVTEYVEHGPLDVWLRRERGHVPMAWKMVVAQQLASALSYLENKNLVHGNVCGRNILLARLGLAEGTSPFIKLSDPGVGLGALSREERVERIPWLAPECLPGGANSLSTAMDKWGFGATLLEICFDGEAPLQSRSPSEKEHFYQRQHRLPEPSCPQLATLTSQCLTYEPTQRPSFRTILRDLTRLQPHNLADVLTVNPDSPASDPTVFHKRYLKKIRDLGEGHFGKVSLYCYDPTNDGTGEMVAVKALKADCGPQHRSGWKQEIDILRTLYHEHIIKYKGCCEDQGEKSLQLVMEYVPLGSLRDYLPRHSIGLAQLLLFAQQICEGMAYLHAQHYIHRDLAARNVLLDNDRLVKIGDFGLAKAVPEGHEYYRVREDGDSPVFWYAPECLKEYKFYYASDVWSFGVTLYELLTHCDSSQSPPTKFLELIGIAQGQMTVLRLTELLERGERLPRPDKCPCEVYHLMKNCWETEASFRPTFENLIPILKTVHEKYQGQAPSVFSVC

By inhibition is commonly meant the drop in the measured response relative to a control, in per cent. For `CNS(=O)(=O)c1ccc(N(C)C)c(Nc2ncnc3cc(OC)c(OC)cc23)c1` [compound 7, 3-((6,7-dimethoxyquinazolin-4-yl)amino)-4-(dimethylamino)-N-methylbenzenesulfonamide], the inhibition at 1 µM at ACVR1 was 0%; at CAMK1D it was 0%; at CAMKK1, 5%; at CAMKK2 it was 0%; at CDK4-cyclinD3, 37%; on CDK8 it was 0%. In addition, the inhibition at 1 µM is 0% at CSNK1G1; 0% at ERK1; 0% at ERK2; 0% at FGR; 11% on HCK; 0% at LATS2. In addition, the inhibition at 1 µM on LCK was 63%; on MAP3K1 it was 0%; on MAP3K3, 30%; at NEK11, 0%; on PAK2, 0%; at PFTAIRE2 it was 0%. Moreover, the inhibition at 1 µM on PIK3CA(E545K) was 5%; at PIM1, 0%; on PKNB(M.tuberculosis) it was 23%; at TNNI3K, 62%; in assay [1], 0%; at p38-alpha, 0%.
